Measured values reported in US4160828A, “Analgesic phosphinyl compounds and compositions” (Hoechst Aktiengesellschaft, priority 1978, dated 1979).

Legend:
[1] = prior-art compound; cited from earlier work
[2] = prior-art compound; cited from earlier work; remark: listed apart in the source
mice = test: Toxicity by oral administration to mice; format: in vivo, mouse; details: versus Comparison Compound of the same test series
Protocol: (§1) The physiological activity of the compounds prepared in the Examples has been tested using various test methods and compared with the activities of various structurally similar commercial products. In each case, testing was carried out with equimolar quantities of the test compounds.
The toxicity was measured by oral administration to 50 mice.

rat [3] = test: Adjuvant arthritis test in the rat (Pearson et al), anti-inflammatory effect; format: in vivo; details: sub-chronic; for Adjuvant arthritis: test series III, equimolar quantities; for adjuvant arthritis test compared with comparison compound: versus Comparison Compound C
Protocol: (§2) The physiological activity of the compounds prepared in the Examples has been tested using various test methods and compared with the activities of various structurally similar commercial products. In each case, testing was carried out with equimolar quantities of the test compounds. The anti-inflammatory effect was measured by the carrageenin oedema test on rat paws using the method of Winter et al (Proceed. Soc. Exp. Biol. Med. 111(1962) Page 544) and in test series III) and also by the adjuvant arthritis test in the rat according to Pearson et al (Arthrit. Rheumat. 2(1959) page 440).

[4] = Analgesic activity / overall physiological activity, in words; format: in vivo; details: test not specified; versus Comparison Compound C
Protocol: as §1
The analgesic activity was determined by the Writhing Test in the mouse using the method of E. Siegmund et al (Proceed. Soc. --Exp. Biol. Med. 95(1957) Page 729) and by the Randall-Selitto Test in the rat using the method of Randall and Selitto (Arch. Int. Pharmacodyn. 111(1957) Page 409).
The anti-inflammatory effect was measured by the carrageenin oedema test on rat paws using the method of Winter et al (Proceed. Soc. Exp. Biol. Med. 111(1962) Page 544) and in test series III) and also by the adjuvant arthritis test in the rat according to Pearson et al (Arthrit. Rheumat. 2(1959) page 440).

rat [5] = test: Randall-Selitto Test in the rat, analgesic activity; format: in vivo; details: versus Comparison Compound of the same test series
Protocol: (§3) The physiological activity of the compounds prepared in the Examples has been tested using various test methods and compared with the activities of various structurally similar commercial products. In each case, testing was carried out with equimolar quantities of the test compounds. The analgesic activity was determined by the Writhing Test in the mouse using the method of E. Siegmund et al (Proceed. Soc. --Exp. Biol. Med. 95(1957) Page 729) and by the Randall-Selitto Test in the rat using the method of Randall and Selitto (Arch. Int. Pharmacodyn. 111(1957) Page 409).

[6] = tested on: carrageenin oedema on rat paws; test: Carrageenin oedema test on rat paws (Winter et al), anti-inflammatory effect; format: in vivo; details: rat paw; versus Comparison Compound of the same test series
Protocol: as §2

mouse = test: Writhing Test in the mouse (Siegmund et al), analgesic activity; format: in vivo; details: versus Comparison Compound of the same test series
Protocol: as §3

SMILES: O=C(OCC(O)CO)c1ccccc1Nc1ccnc2cc(Cl)ccc12 (stereo not drawn) [2,3-dihydroxypropyl N-(7-chloro-4-quinolyl)-anthranilate]
- analgesic activity, prior art [1]: known to have analgesic activity
- solubility in water, prior art [2]: insoluble in water

SMILES: CP(C)(=O)COC(=O)c1ccccc1Nc1cccc(C(F)(F)F)c1 [Compound 1a, dimethylphosphinylmethyl N-(3-trifluoromethyl-phenyl)-anthranilate]
- toxicity compared with comparison compound (mice): substantially more favourable than that of Compound C
- Adjuvant arthritis (rat [3]): 5-10
- adjuvant arthritis test compared with comparison compound (rat [3]): considerably better than that of Comparision Compound C
- analgesic activities compared with comparison compound [4]: clearly improved over that of Comparison Compound C

SMILES: Cc1cccc(Nc2ccccc2C(=O)OCP(C)(C)=O)c1C [Compound 1c, Dimethylphosphinyl-methyl N-(2,3-dimethylphenyl)-anthranilate]
- Randall-Selitto test compared with comparison compound (rat [5]): substantial improvement over the Comparison Compound
- Carrageenin oedema test / anti-inflammatory activity compared with comparison compound [6]: more or less equivalent to these of the commercial compound
- toxicity compared with comparison compound (mice): more favourable toxicity than Compound B

SMILES: Cc1cccc(Nc2ccccc2C(=O)OCCCP(C)(C)=O)c1C [Compound 1d, Dimethylphosphinyl-propyl N-(2,3-dimethylphenyl)-anthranilate]
- Writhing test compared with comparison compound (mouse): substantial improvement over the Comparison Compound
- Carrageenin oedema test / anti-inflammatory activity compared with comparison compound [6]: more or less equivalent to these of the commercial compound
- toxicity compared with comparison compound (mice): more favourable toxicity than Compound B

SMILES: CP(C)(=O)CCCOC(=O)c1ccccc1Nc1cccc(C(F)(F)F)c1 [Compound 1e, Dimethylphosphinyl-propyl N-(3-trifluoromethylphenyl)-anthranilate]
- toxicity compared with comparison compound (mice): substantially more favourable than that of Compound C
- Adjuvant arthritis (rat [3]): 10-25
- adjuvant arthritis test compared with comparison compound (rat [3]): considerably better than that of Comparision Compound C

SMILES: CP(C)(=O)CCCOC(=O)c1ccccc1Nc1c(C(F)(F)F)cnc2ccccc12 [Compound 1f, 3-(Dimethylphosphinyl)-propyl N-(3-trifluoromethyl-4-quinolyl)-anthranilate]
- analgesic activities compared with comparison compound [4]: clearly improved over that of Comparison Compound C

SMILES: CP(C)(=O)COC(=O)c1ccccc1Nc1ccnc2c(C(F)(F)F)cccc12 [Compound 2a, dimethylphosphinylmethyl N-(8-trifluoromethyl-4-quinolyl)-anthranilate]
- Writhing test compared with comparison compound (mouse): substantially better than the Comparison compound
- toxicity compared with comparison compound (mice): lower than that of Compound A

SMILES: CP(C)(=O)COC(=O)c1ccccc1Nc1ccnc2cc(Cl)ccc12 [Compound 2c, 3-(dimethylphosphinyl)-methyl N-(7-chloro-4-quinolyl)-anthranilate]
- Writhing test compared with comparison compound (mouse): substantially better than the Comparison compound
- Carrageenin oedema test / anti-inflammatory activity compared with comparison compound [6]: show an improvement compared with Compound A

SMILES: CP(C)(=O)COC(=O)c1cccnc1Nc1cccc(C(F)(F)F)c1 [Compound 2d, 3-(dimethylphosphinyl)-methyl 2-(3-trifluoromethylanilino)-nicotinate]
- Carrageenin oedema test / anti-inflammatory activity compared with comparison compound [6]: practically almost equal to that of the Comparison Compound
- toxicity compared with comparison compound (mice): more than twice that of Comparision Compouhd D

SMILES: CP(C)(=O)CCCOC(=O)c1ccccc1Nc1ccnc2cc(Cl)ccc12 [Compound 4, 3-(dimethylphosphinyl)-propyl N-(7-chloro-4-quinolyl)-anthranilate]
- Carrageenin oedema test / anti-inflammatory activity compared with comparison compound [6]: show an improvement compared with Compound A

SMILES: O=C(O)c1ccccc1Nc1cccc(C(F)(F)F)c1 [Compound C, Flufenamic acid, reference compound]
- Adjuvant arthritis (rat [3]): 25-50
